How the values were obtained:
[1] = system: LPS-induced acute posterior uveitis; assay: Aqueous and vitreous humor inflammatory cell counts and protein concentration (Example 13); type: in vivo, domestic weanling pigs
Protocol: Pigs were euthanized on study day 3 after clinical scoring, OCT, ERG, and wide-field ocular fundus photography was completed. After euthanasia with an overdose of intravenous barbiturate, both eyes were removed, Aqueous humor (All) was aspirated and a 1 mL sample of vitreous humor (VH) was collected from each eye immediately after euthanasia. The globe was then fixed in Davidson's solution for 24 hours, followed by alcohol. Central, saggital sections of each globe, including the optic nerve, were stained with hematoxylin and eosin and examined by light microscopy. Two pathology-trained observers, masked to the study groups, graded degree of inflammatory infiltrate of the ocular anterior and posterior segments. The grading scale for the anterior and posterior ocular segment used was as follows: 0=no evidence of cellular infiltrate; 1=a few cells infiltrated (mild)−focal; 2=a few cells infiltrated (mild)−diffuse; 3=moderate number of cells infiltrated; and 4=high amount of cellular infiltrate.
After aspiration from the eyes, AH and VH were immediately placed on ice, transferred to the laboratory, then frozen at −80° C. until processing. Samples where thawed at room temperature, vortexed, and total cell counts were performed with a hemocytometer. Total protein concentration was measured using the […] (Pierce BCA Protein Assay Kit, Thermo Scientific Pierce, Rockford, Ill.).
Differences were considered significant at P<0.05.

[2] = Electroretinography in porcine uveitis study (Example 13); type: in vivo, domestic weanling pigs; conditions: after SCS or IVT injections of 0.2 or 2.0 mg TA
Protocol: With the pigs anesthetized on Days −1, 0 and 3, and pupils dilated with 1% tropicamide HCl. and corneas anesthetized with 0.5% proparacaine HCl, whole field ERGs were recorded from the left eve prior to injections. All animals were dark adapted for 15 minutes prior to ERG. A monopolar contact lens electrode (ERG-jet, La Chaux des Fonds, Switzerland) was placed on the cornea to serve as an active electrode. A subdermal electrode at the lateral canthus served as the indifferent electrode. A Barraquer eyelid speculum was placed to maintain open eyelids and a subdermal needle electrode was inserted dorsally as the ground electrode. EKGs were elicited by brief flashes at 0.33 Hz delivered with a mini-ganzfehl photostimulator (Roland Instruments, Wiesbaden, Germany) at maximal intensity. Twenty responses were amplified, filtered, and averaged (Retiport Electrophysiologic Diagnostic Systems, Rolland Instruments, Wiesbaden, Germany). B wave amplitudes were recorded from each pig at the designated times.

Which results are given for CC1(C)O[C@@H]2C[C@H]3[C@@H]4CCC5=CC(=O)C=C[C@]5(C)[C@@]4(F)[C@@H](O)C[C@]3(C)[C@]2(C(=O)CO)O1 [TA, triamcinolone acetonide]?
Mean AH cell counts compared with Groups 1, 5 or 6 ([1]; Group 3: low dose TA SCS): not significantly different; Mean VH cell count compared with Group 1 and Group 4 ([1]; Group 3: low dose TA SCS): significantly higher; Mean AH cell counts compared with Groups 1, 5 or 6 ([1]; Group 4: high dose TA SCS): not significantly different; mean VH cell counts compared with Group 1, the untreated control ([1]; Group 4: high dose TA SCS): not significantly different; mean vitreous humor protein concentrations compared with Groups 3, 5 and 6 ([1]; Group 4: high dose TA SCS): significantly lower; Mean AH cell counts compared with Group 1 ([1]; Group 5: low dose TA IVT): significantly higher; Mean VH cell count compared with Group 1 and Group 4 ([1]; Group 5: low dose TA IVT): significantly higher; Mean AH cell counts compared with Group 1 ([1]; Group 6: high dose TA IVT): significantly higher; mean aqueous humor protein concentration, differences among the groups ([1]; all groups): no significant differences; retinal dysfunction (decrease in b wave amplitude) [2]: no evidence of retinal dysfunction

— patent publication US20180028516A1, “METHODS AND DEVICES FOR THE TREATMENT OF OCULAR DISEASES IN HUMAN SUBJECTS” (CLEARSIDE BIOMEDICAL, INC., priority 2012, published 2018)
